In general, chromatographic logP refers to lipophilicity estimated from chromatographic retention. Read a high chromatographic logP as higher lipophilicity.

This note sets out measurements from patent publication US9765034B2, “5-halogenopyrazole biphenylcarboxamides” (BAYER CROPSCIENCE AG, priority 2012, dated 2017).

Data set [1] can be described thus: logP by HPLC on reversed phase columns (EEC directive 79/831 Annex V.A8). The settings on record: method [a]: LC-MS at pH 2.7, 0.1% formic acid in water / acetonitrile gradient 10% to 95%.
Another data set deals with Phytophthora infestans. The format is in vivo. The settings on record: tomato plants, preventive spray, 500 ppm, grading 5 days after contamination.
Another data set deals with Puccinia recondita. Kind of data set: In vivo preventive test on Puccinia recondita (brown rust on wheat). The settings on record: wheat plants, preventive spray, 500 ppm, grading 12 days after contamination. On the procedure: Example: In Vivo Preventive Test on Puccinia recondita (Brown Rust on Wheat) […] Wheat plants (“Scipion” variety), sown in starter cups on a 50/50 peat soil-pozzolana substrate and grown at 22° C., are treated at the 1-leaf stage (10 cm height) by spraying with the active ingredient prepared as described above. Plants, used as controls, are treated with the mixture of acetone/tween/DMSO/water not containing the active material. After 24 hours, the plants are contaminated by spraying the leaves with an aqueous suspension of Puccinia […] spores (100 000 spores per ml). […] Grading (% of efficacy) is carried out 12 days after the contamination, in comparison with the control plants. Under these conditions, good (at least 70%) or total protection is observed at a dose of 500 ppm with the following compounds: […]

The next data set concerns Sphaerotheca fuliginea. Kind of data set: In vivo preventive test on Sphaerotheca fuliginea (powdery mildew on cucurbits). The settings on record: gherkin plants, preventive spray, 500 ppm, grading 12 days after contamination. The protocol: Example: In Vivo Preventive Test on Sphaerotheca fuliginea (Powdery Mildew on Cucurbits) […] Gherkin plants (“Vert petit de Paris” variety), sown in starter cups on a 50/50 peat soil-pozzolana substrate and grown at 24° C., are treated at the Z11 cotyledon stage by spraying with the active ingredient prepared as described above. Plants, used as controls, are treated with the mixture of acetone/tween/DMSO/water not containing the active material. After 24 hours, the plants are contaminated by spraying the cotyledons with an aqueous suspension of Sphaerotheca fuliginea spores (100 000 spores per ml). The spores are collected from infected plants. […] Grading (% of efficacy) is carried out 12 days after the contamination, in comparison with the control plants. Under these conditions, good (at least 70%) or total protection is observed at a dose of 500 ppm with the following compounds: […]

The next data set concerns Uromyces appendiculatus. Description: In vivo preventive test on Uromyces appendiculatus (bean rust). The settings on record: bean plants, preventive spray, 500 ppm, grading 11 days after contamination. The protocol: Example: In Vivo Preventive Test on Uromyces appendiculatus (Bean Rust) […] Bean plants (“Saxa” variety), sown in starter cups on a 50/50 peat soil-pozzolana substrate and grown at 24° C., are treated at the 2-leaf stage (9 cm height) by spraying with the active ingredient prepared as described above. Plants, used as controls, are treated with the mixture of acetone/tween/DMSO/water not containing the active material. After 24 hours, the plants are contaminated by spraying the leaves with an aqueous suspension of Uromyces appendiculatus spores (150 000 spores per ml). […] Grading (% of efficacy) is carried out 11 days after the contamination, in comparison with the control plants. Under these conditions, good (at least 70%) or total protection is observed at a dose of 500 ppm with the following compounds: […]

The test system of another data set is Pyrenophora teres. Kind of data set: In vivo preventive test on Pyrenophora teres (net blotch on barley). The settings on record: barley plants, preventive spray, 500 ppm, grading 14 days after contamination. The protocol: Example: In Vivo Preventive Test on Pyrenophora teres (Net Blotch on Barley) […] Barley plants (“Plaisant” variety), sown in starter cups on a 50/50 peat soil-pozzolana substrate and grown at 22° C., are treated at the 1-leaf stage (10 cm height) by spraying with the active ingredient prepared as described above. Plants, used as controls, are treated with the mixture of acetone/tween/DMSO/water not containing the active material. After 24 hours, the plants are contaminated by spraying the leaves with an aqueous suspension of Pyrenophora teres spores (12 000 spores per ml). The spores are collected from a 12-day-old culture. […] Grading (% of efficacy) is carried out 14 days after the contamination, in comparison with the control plants. Under these conditions, good (at least 70%) or total protection is observed at a dose of 500 ppm with the following compounds: […]

Data set [2] has as its system Fusarium nivale (var. majus). Kind of data set: In vivo Fusarium nivale (var. majus) test (wheat)/preventive. The settings on record: preventive, 500 ppm of active ingredient, evaluated 5 days after inoculation. The protocol: (§1) Example: In Vivo Fusarium nivale (Var. Majus)-Test (Wheat)/Preventive Solvent: 49 parts by weight of N,N-dimethylacetamide Emulsifier: 1 part by weight of alkylaryl polyglycol ether To produce a suitable preparation of active compound, 1 part by weight of active compound or active compound combination is mixed with the stated amounts of solvent and emulsifier, and the concentrate is diluted with water to the desired concentration. To test for preventive activity, young plants are sprayed with the preparation of active compound or active compound combination at the stated rate of application. After the spray coating has been dried, the plants are slightly injured by using a sandblast and afterwards to they are sprayed with a conidia suspension of Fusarium nivale (var. majus).

The test system of a further data set is Pyricularia oryzae. The format is in vivo. The settings on record: rice plants, preventive spray, 500 ppm, grading 6 days after contamination.
In another data set the test system is Septoria tritici. Description: In vivo preventive test on Septoria tritici (leaf spot on wheat). Conditions: wheat plants, preventive spray, 500 ppm, grading 24 days after contamination. On the procedure: Example: In Vivo Preventive Test on Septoria tritici (Leaf Spot on Wheat) […] Wheat plants (“Scipion” variety), sown in starter cups on a 50/50 peat soil-pozzolana substrate and grown at 22° C., are treated at the 1-leaf stage (10 cm height) by spraying with the active ingredient prepared as described above. Plants, used as controls, are treated with the mixture of acetone/tween/DMSO/water not containing the active material. After 24 hours, the plants are contaminated by spraying the leaves with an aqueous suspension of cryopreserved Septoria tritici spores (500 000 spores per ml). […] Grading (% of efficacy) is carried out 24 days after the contamination, in comparison with the control plants. Under these conditions, good (at least 70%) or total protection is observed at a dose of 500 ppm with the following compounds: […]

The subject of the next data set is Alternaria brassicae. Kind of data set: In vivo preventive test on Alternaria brassicae (leaf spot on radish). The settings on record: radish plants, preventive spray, 500 ppm, grading 6 days after contamination. On the procedure:
Example: In Vivo Preventive Test on Alternaria brassicae (Leaf Spot on Radish) […] Radish plants (“Pernod Clair” variety), sown in starter cups on a 50/50 peat soil-pozzolana substrate and grown at 17° C., are treated at the cotyledon stage by spraying with the active ingredient prepared as described above. Plants, used as controls, are treated with the mixture of acetone/tween/DMSO/water not containing the active material. After 24 hours, the plants are contaminated by spraying the cotyledons with an aqueous suspension of Alternaria brassicae spores (50 000 spores per ml). The spores are collected from a 15-day-old culture. […] Grading (% of efficacy) is carried out 6 days after the contamination, in comparison with the control plants. Under these conditions, good (at least 70%) or total protection is observed at a dose of 500 ppm with the following compounds: […]

For a further data set, the system named is Botrytis cinerea. Description: In vivo preventive test on Botrytis cinerea (grey mould). Conditions: gherkin plants, preventive spray, 500 ppm, grading 4 to 5 days after contamination. The protocol: Example: In Vivo Preventive Test on Botrytis cinerea (Grey Mould) […] Gherkin plants (“Vert petit de Paris” variety), sown in starter cups on a 50/50 peat soil-pozzolana substrate and grown at 24° C., are treated at the Z11 cotyledon stage by spraying with the active ingredient prepared as described above. Plants, used as controls, are treated with the mixture of acetone/tween/DMSO/water not containing the active material. After 24 hours, the plants are contaminated by spraying the cotyledons with an aqueous suspension of cryopreserved Botrytis cinerea spores (50 000 spores per ml). The spores are suspended in a nutrient solution composed of 10 g/L of PDB, 50 g/L of D-Fructose, 2 g/L of NH4NO3 and 1 g/L of KH2PO4. […] Grading (% of efficacy) is carried out 4 to 5 days after the contamination, in comparison with the control plants. Under these conditions, good (at least 70%) or total protection is observed at a dose of 500 ppm with the following compounds: […]

The test system of data set [3] is Blumeria graminis fsp. hordei. Kind of data set: In vivo Blumeria test (barley)/preventive. Conditions: preventive, 500 ppm of active ingredient, evaluated 7 days after inoculation. The protocol: as §1, with “Blumeria Test (Barley)/Preventive” for “Fusarium nivale (Var. Majus)-Test (Wheat)/Preventive”, “dusted” for “slightly injured by using a sandblast and afterwards to they are sprayed”, “spores” for “a conidia suspension”, “Blumeria graminis fsp. hordei.” for “Fusarium nivale (var. majus).”

A further data set is described as follows: physchem. The settings on record: pH 2.7.
Another data set concerns Phakopsora pachyrhizi. Description: In vivo Phakopsora test (soybeans)/preventive. Conditions: preventive, 100 ppm of active ingredient, evaluated 7 days after inoculation. The protocol:
Example: In Vivo Phakopsora Test (Soybeans)/Preventive Solvent: 24.5 parts by weight of acetone • 24.5 parts by weight of dimethylacetamide Emulsifier: • 1 part by weight of alkylaryl polyglycol ether To produce a suitable preparation of active compound, 1 part by weight of active compound is mixed with the stated amounts of solvent and emulsifier, and the concentrate is diluted with water to the desired concentration. To test for preventive activity, young plants are sprayed with the preparation of active compound at the stated rate of application. After the spray coating has dried on, the plants are inoculated with an aqueous to spore suspension of the causal agent of soybean rust (Phakopsora pachyrhizi) and stay for 24 h without light in an incubation cabinet at approximately 24° C. and a relative atmospheric humidity of 95%.

Regarding `C#CCON=C(C)c1ccc(-c2ccccc2NC(=O)c2c(C(F)F)nn(C)c2Cl)cc1` [Example 3], the logP in data set [1] is 4.06[a]. The Eff. % worked out at 99% with Phytophthora infestans, 98% with Puccinia recondita, 70% in the data set with Sphaerotheca fuliginea and 100% with Uromyces appendiculatus.

Regarding `C#CCON=Cc1ccc(-c2ccccc2NC(=O)c2c(C(F)F)nn(C)c2F)cc1` [Example 4], the logP in data set [1] is 3.55[a]. For the same molecule, the Eff. % in the data set with Pyrenophora teres is reported as 100%; in the data set on Phytophthora infestans it was 100%; with Puccinia recondita it was 100%; in data set [2], 80%; with Sphaerotheca fuliginea, 100%; in the data set with Pyricularia oryzae, 80%. Moreover, the Eff. % came out at 95% in the data set on Septoria tritici and 100% with Uromyces appendiculatus.

Regarding `CCON=Cc1ccc(-c2ccccc2NC(=O)c2c(C(F)F)nn(C)c2Cl)cc1` [Example 6], the logP in [1] was 4.19[a]. Moreover, the Eff. % in the data set with Pyrenophora teres is 100%; in the data set with Alternaria brassicae it was 97%; with Puccinia recondita, 100%; in the data set with Botrytis cinerea it was 93%; in the data set with Sphaerotheca fuliginea, 100%; with Pyricularia oryzae, 100%. In the data set with Uromyces appendiculatus, this molecule registered an Eff. % of 100%.

Consider `CON=Cc1ccc(-c2ccccc2NC(=O)c2c(C(F)F)nn(C)c2Cl)cc1` [Example 8], for which the logP in [1] is 4.18[a]. Besides, the Eff. % worked out at 100% in data set [3]; 97% in the data set on Pyrenophora teres; 100% in the data set on Puccinia recondita; 73% in the data set with Botrytis cinerea; 100% in the data set on Sphaerotheca fuliginea; 80% with Pyricularia oryzae. The Eff. % in the data set with Septoria tritici and in the data set on Uromyces appendiculatus was 100% in each case.

As to `CON=Cc1ccc(-c2ccccc2NC(=O)c2c(C(F)F)nn(C)c2F)cc1` [Example 9, 5-fluoro-3-(difluoromethyl)-N-{4′-[(methoxyimino)methyl]biphenyl-2-yl}-1-methyl-1H-pyrazole-4-carboxamide], the Eff. % in the data set on Pyrenophora teres amounted to 79%; in the data set on Puccinia recondita, 100%; with Sphaerotheca fuliginea, 100%; in the data set with Pyricularia oryzae, 80%; in the data set on Septoria tritici, 80%; in the data set with Uromyces appendiculatus, 100%. In “physchem”, this molecule showed a chromatographic logP of 3.46.

Turning to `CC#CCON=C(C)c1ccc(-c2ccccc2NC(=O)c2c(C(F)F)nn(C)c2F)cc1` [Example 13], the logP in data set [1] is 4.11[a]. The Eff. % in the data set with Pyrenophora teres is 88%; in the data set on Phakopsora pachyrhizi, 100%; in the data set on Puccinia recondita it was 100%; in the data set on Botrytis cinerea, 80%; in the data set with Sphaerotheca fuliginea it was 100%; in the data set with Septoria tritici it was 80%. Further, the Eff. % in the data set with Uromyces appendiculatus is reported as 100%.

On to `CC#CCON=C(C)c1ccc(-c2ccccc2NC(=O)c2c(C(F)F)nn(C)c2Cl)cc1` [Example 27], for which the logP in data set [1] was 4.41[a]. Further, the Eff. % was found to be 100% in the data set with Phakopsora pachyrhizi; 98% in the data set on Puccinia recondita; 100% in the data set on Sphaerotheca fuliginea; 70% in the data set with Septoria tritici; 100% in the data set with Uromyces appendiculatus.

For `CCON=C(c1ccc(-c2ccccc2NC(=O)c2c(C(F)F)nn(C)c2F)cc1)C(F)(F)F` [Example 29], the logP in data set [1] was 4.46[a]. Also, the Eff. % in the data set on Pyrenophora teres came out at 97%; with Phakopsora pachyrhizi, 91%; in the data set with Puccinia recondita, 97%; in data set [2], 86%; with Sphaerotheca fuliginea, 100%; with Pyricularia oryzae, 83%. In the data set with Uromyces appendiculatus, the Eff. % was determined as 100%.
